≈ marks a conversion by molar mass, not a printed value.

One test deals with S. aureus SR3637 (MRSA). In words: Antibiotic susceptibility test (broth microdilution MIC). It counts as cell-based. To be noted: Staphylococcus aureus; S. aureus SR3637 (MRSA); CAMHB, 35°C, 16 to 20 hours; read-out: Minimal inhibitory concentration. The procedure:
(§1) Antimicrobial susceptibility testing was performed by broth microdilution in cation-adjusted Mueller–Hinton broth (CAMHB) according to the CLSI guidelines. Overnight culture was suspended in CAMHB, and the OD625 was measured using an Ultrospec 6300 pro spectrophotometer (GE Healthcare). The culture suspension was diluted to 0.01 of the OD625, and 5 μL of it was inoculated into test medium containing the test chemical. Then incubation was performed at 35°C for 16 to 20 hours. The final inoculum size corresponded to ca. 5 x 10^4 CFU per well, which corresponded to ca. 5 x 10^5 CFU/mL. The minimum inhibitory concentration (MIC) endpoint was defined as the lowest concentration of the test chemical that inhibited bacterial growth as detected by the unaided eye.
For orientation: Broth dilution looks for growth in wells or tubes with falling amounts of substance.

The test system of the next test is A. baumannii ATCC 19606. The description is as above. Conditions: Acinetobacter baumannii, ATCC19606; A. baumannii ATCC 19606; CAMHB, 35°C, 16 to 20 hours; read-out: Minimal inhibitory concentration. It counts as cell-based. The procedure: as §1
The next test concerns S. pneumoniae Type I. Described as above. To be noted: Streptococcus pneumoniae; S. pneumoniae Type I; CAMHB, 35°C, 16 to 20 hours; read-out: Minimal inhibitory concentration. In kind it is cell-based. The procedure: as §1
The next test concerns P. aeruginosa ATCC 27853. Described as above. Conditions: Pseudomonas aeruginosa, ATCC27853; P. aeruginosa ATCC 27853; CAMHB, 35°C, 16 to 20 hours; read-out: Minimal inhibitory concentration. In kind it is cell-based. The procedure: as §1
In a further test the test system is H. influenzae ATCC 10211. The test is described as above. It counts as cell-based. Conditions: Haemophilus influenzae, ATCC10211; H. influenzae ATCC 10211; CAMHB, 35°C, 16 to 20 hours; read-out: Minimal inhibitory concentration. The procedure: as §1
Another test deals with E. faecium SR7917 (VRE). Described as above. It counts as cell-based. To be noted: Enterococcus faecium; E. faecium SR7917 (VRE); CAMHB, 35°C, 16 to 20 hours; read-out: Minimal inhibitory concentration. The procedure:
as §1

Another test concerns E. faecalis ATCC 29212. The test is described as above. It counts as cell-based. To be noted: Enterococcus faecalis, ATCC29212; E. faecalis ATCC 29212; CAMHB, 35°C, 16 to 20 hours; read-out: Minimal inhibitory concentration. The procedure:
as §1

The subject of the next test is K. pneumoniae ATCC 13883. The description is as above. In kind it is cell-based. Conditions: Klebsiella pneumoniae, ATCC13883; K. pneumoniae ATCC 13883; CAMHB, 35°C, 16 to 20 hours; read-out: Minimal inhibitory concentration. The procedure: as §1
A further test deals with E. coli ATCC 25922. Described as above. It counts as cell-based. To be noted: Escherichia coli, ATCC25922; E. coli ATCC 25922; CAMHB, 35°C, 16 to 20 hours; read-out: Minimal inhibitory concentration. The procedure:
as §1

In a further test the test system is E. faecalis SR7914 (VRE). The test is described as above. It counts as cell-based. Conditions: Enterococcus faecalis; E. faecalis SR7914 (VRE); CAMHB, 35°C, 16 to 20 hours; read-out: Minimal inhibitory concentration. The procedure:
as §1

The test system of another test is E. faecium ATCC 19434. Described as above. It counts as cell-based. Conditions: Enterococcus faecium, ATCC19434; E. faecium ATCC 19434; CAMHB, 35°C, 16 to 20 hours; read-out: Minimal inhibitory concentration. The procedure:
as §1

Test [1] has as its system S. aureus ATCC 29213 (MSSA). Described as above. In kind it is cell-based, Staphylococcus aureus. To be noted: S. aureus ATCC 29213 (MSSA), CAMHB, 35°C, 16 to 20 hours; for MIC: Staphylococcus aureus, read-out: Minimal inhibitory concentration. The procedure: as §1
Test [2] relates to S. aureus FtsZ (FtsZ^K175D_N-terminal-EGFP and FtsZ_C-terminal-mCherry). As to the kind of experiment: FCCS screening for inhibition of GTP-dependent head-to-tail dimerization of fragmented FtsZ. In kind it is biochemical, Staphylococcus aureus. Conditions: from FCCS binding ratio; chemical 20 or 100 μM, GTP 2 mM, 30 min; mean (SD), n = 3. The procedure: The purified FtsZ^K175D_N-terminal-EGFP and FtsZ_C-terminal-mCherry were mixed in 0.44–0.85 μM each in a buffer composed of 50 mM Tris-HCl [pH 8.0], 500 mM Na2SO4 and 5 mM MgCl2. Mixed samples were dispensed as 48.5 μL aliquots into a 384-well glass bottom microplate (Olympus) and a 0.5 μL aliquot of the chemical at a concentration of 2 or 10 mM was added to each well. The final concentration of the chemicals was 20 or 100 μM. After mixing, FCCS measurement was performed (premeasurement, data not shown). After premeasurement of FCCS, 1 μL of GTP (100 mM) was added to each well (final concentration: 2 mM). After mixing and 30 min incubation at room temperature, FCCS measurement was performed. Using samples purified on a different day, independent screening was performed 3 times.
The data acquired from FCCS were analyzed using ZEN software (Zeiss, Germany). The fluorescence autocorrelation functions from the green, G G (τ), and red channels, G R (τ), and the fluorescence cross-correlation functions, G C (τ) were calculated according to the normalized correlation function. GG(τ)=1+⟨δIG(t)⋅δIG(t+τ)⟩/⟨IG(t)⟩⋅⟨IG(t)⟩ (1) GR(τ)=1+⟨δIR(t)⋅δIR(t+τ)⟩/⟨IR(t)⟩⋅⟨IR(t)⟩ (2) GC(τ)=1+⟨δIG(t)⋅δIR(t+τ)⟩/⟨IG(t)⟩⋅⟨IR(t)⟩ (3) where τ denotes the time delay, I G is the fluorescent intensity of the green channel, and I R is the fluorescent intensity of the red channel. The acquired autocorrelations were fitted using a two-component model, and cross-correlation was fitted using a one-component model. G(τ)=1+1−Ftriplet+Ftripletexp(−τ/τtrplet)/N(1−Ftriplet)×((Ffast/1+τ/τfast)1/1+τ/s^2τfast+(Fslow/1+τ/τslow)1/1+τ/s^2τslow) (4) where F triplet is the average fraction of triplet state molecules (in the fitting of cross-correlation, assuming F triplet is 0), τ triplet is the triplet relaxation time, and F fast and F slow are the fractions of the fast and slow components, respectively. τ fast and τ slow are the diffusion times of the fast and slow components, respectively. In the fitting of G G (τ), τ fast was fixed in the range from 100 to 200 μs. In the fitting of G R (τ), τ fast was fixed in the range from 200 to 300 μs. N is the average number of fluorescent particles in the excitation-detection volume defined by radius w, z is half of the long axis of the confocal volume element, and s is the structural parameter representing the ratio s = z/w. The values of w i (i = G or R) are determined from the diffusion coefficients of the rhodamine 6G and Alexa Fluor 594 used as standard dyes, respectively.
The average number calculated from autocorrelation N G and N R and complex cross-correlated particles N C is given by NG=1/GG(0)−1 (5) NR=1/GR(0)−1 (6) NC=GC(0)−1/(GR(0)−1)⋅(GG(0)−1) (7)
The binding ratio (BR), which directly indicates the tendency of interaction between FtsZ^K175D_N-terminal-EGFP and FtsZ_C-terminal-mCherry, was defined by the following Eq (8). When a chemical has a higher inhibitory effect, BR should be lower. BR=NC/NG (8)
Moreover, inhibition % was calculated using the following Eq (9). The inhibition % should be higher when the chemical has a higher inhibitory effect. inhibition%=BRDMSO,GTP(+)−BRchemical,GTP(+)/BRDMSO,GTP(+)×100 (9) where BR DMSO,GTP(+) is the binding ratio in the presence of DMSO (vehicle) and GTP is the control value indicating no inhibition, BR chemical,GTP(+) is the binding ratio in the presence a chemical and GTP. Considering the background, Eq (9) can be shown as follows. inhibition%=(BRDMSO,GTP(+)−BRbackground)−(BRchemical,GTP(+)−BRbackground)/BRDMSO,GTP(+)−BRbackground×100=BRDMSO,GTP(+)−BRchemical,GTP(+)/BRDMSO,GTP(+)−BRbackground×100 (10) where BR background is the binding ratio of the background obtained in the absence of GTP.

In the case of `O=C(NNC(=S)NC1CC2CCC1C2)c1cc2ccccc2cc1O` (stereo not drawn) [Chemical #4], the MIC in the test with S. aureus SR3637 (MRSA), in the test on A. baumannii ATCC 19606, in the test on S. pneumoniae Type I, in the test on P. aeruginosa ATCC 27853, in the test on H. influenzae ATCC 10211 and with E. faecium SR7917 (VRE) was over 32 mg/L throughout. Also, the MIC (in the test on E. faecalis ATCC 29212; in the test on K. pneumoniae ATCC 13883; with E. coli ATCC 25922; in the test with E. faecalis SR7914 (VRE); with E. faecium ATCC 19434; in test [1]) was over 32 mg/L each time. Besides, in test [2], the inhibition % was 64.4 (5.8) %.
Turning to `C[C@@H](O)[C@H]1C(=O)N2C(C(=O)O)=C(S[C@@H]3CN[C@H](CNS(N)(=O)=O)C3)[C@H](C)[C@H]12` [Doripenem, reference compound], the MIC with S. aureus SR3637 (MRSA) is 16 mg/L (≈ 38 µM); in the test on A. baumannii ATCC 19606 it was 1 mg/L (≈ 2.38 µM); in the test on S. pneumoniae Type I, at most 0.063 mg/L; in the test on P. aeruginosa ATCC 27853, 0.5 mg/L (≈ 1.19 µM); in the test on H. influenzae ATCC 10211, 0.125 mg/L (≈ 0.297 µM); with E. faecium SR7917 (VRE), 64 mg/L (≈ 152 µM). In addition, the MIC in the test on E. faecalis ATCC 29212 was 1 mg/L (≈ 2.38 µM); with K. pneumoniae ATCC 13883, 0.125 mg/L (≈ 0.297 µM); in the test on E. coli ATCC 25922, at most 0.063 mg/L; with E. faecalis SR7914 (VRE), 8 mg/L (≈ 19 µM); with E. faecium ATCC 19434, 8 mg/L (≈ 19 µM); in test [1] it was at most 0.063 mg/L. Further, the Minimal inhibitory concentration entry in test [1] is “≦0.063 μg/mL”.
For `O=C(c1cccc(-n2cnnc2)c1)N1CC2CCC(Cc3cccc(Cl)c3)C2C1` (stereo not drawn) [Chemical #5], the MIC in the test on S. aureus SR3637 (MRSA), with A. baumannii ATCC 19606, in the test on S. pneumoniae Type I, with P. aeruginosa ATCC 27853, in the test with H. influenzae ATCC 10211 and in the test with E. faecium SR7917 (VRE) was over 64 mg/L each time. The MIC (in the test on E. faecalis ATCC 29212; in the test with K. pneumoniae ATCC 13883; in the test with E. coli ATCC 25922; with E. faecalis SR7914 (VRE); with E. faecium ATCC 19434; in test [1]) was over 64 mg/L throughout. Further, the inhibition % in test [2] was 46.7 (11.4) %.
For the compound `COc1ccc(C2C=C(c3ccc(Br)cc3)N=C3NC(NS(C)(=O)=O)=NN32)cc1` (stereo not drawn) [Chemical #1], the MIC in the test on S. aureus SR3637 (MRSA), in the test on A. baumannii ATCC 19606, in the test with S. pneumoniae Type I, with P. aeruginosa ATCC 27853, in the test on H. influenzae ATCC 10211 and in the test on E. faecium SR7917 (VRE) was over 64 mg/L in each case. The MIC (in the test on E. faecalis ATCC 29212; with K. pneumoniae ATCC 13883; in the test on E. coli ATCC 25922; in the test with E. faecalis SR7914 (VRE); with E. faecium ATCC 19434; in test [1]) was over 64 mg/L throughout. Further, the inhibition % in test [2] was 88.6 (6.8) %.
Turning to `CS(=O)(=O)NC1=NN2C(=NC(c3ccccc3)=CC2c2ccccc2Cl)N1` (stereo not drawn) [Chemical #6], the MIC with S. aureus SR3637 (MRSA), in the test on A. baumannii ATCC 19606, with S. pneumoniae Type I, in the test on P. aeruginosa ATCC 27853, in the test on H. influenzae ATCC 10211 and in the test with E. faecium SR7917 (VRE) was over 64 mg/L each time. Besides, the MIC (with E. faecalis ATCC 29212; in the test with K. pneumoniae ATCC 13883; in the test on E. coli ATCC 25922; in the test with E. faecalis SR7914 (VRE); with E. faecium ATCC 19434; in test [1]) was over 64 mg/L each time. Further, the inhibition % in test [2] is given as 40.9 (1.2) %.
Take `O=C(NNS(=O)(=O)c1cc(Cl)ccc1Cl)c1cc2c(s1)CCCC2` [Chemical #3]: the MIC in the test on S. aureus SR3637 (MRSA), with A. baumannii ATCC 19606, with S. pneumoniae Type I, in the test on P. aeruginosa ATCC 27853, in the test on H. influenzae ATCC 10211 and in the test on E. faecium SR7917 (VRE) was over 64 mg/L in each case. The MIC (with E. faecalis ATCC 29212; with K. pneumoniae ATCC 13883; with E. coli ATCC 25922; in the test on E. faecalis SR7914 (VRE); in the test with E. faecium ATCC 19434; in test [1]) was over 64 mg/L each time. Also, the inhibition % in [2] is recorded as 68.5 (1.7) %.

The values above are taken from publication PMC4496089, “Screening for FtsZ Dimerization Inhibitors Using Fluorescence Cross-Correlation Spectroscopy and Surface Resonance Plasmon Analysis” (PLoS ONE, 2015).
